Columns and labels:
Format in all cases: cell-based
IL-1α = experiment: Human skin organ culture with UVB stressor, IL-1α secretion in the medium; settings: UVB; OSM 0.5%, β-Caroten 15.6 ppm
Protocol: (§1) Topical exposure till 48 hours in total (24 hr recovery following topical application+24 hr after exposure to UVB irradiation) with UVB radiation as stressor on human skin model
(§2) The following general procedure was used in the study:
(§3) Day 1: Topical application of 3 μl of each sample solution on the epidermis of each skin explant. Incubate for 24 hours. SDS 10% was applied only once, and was not farther irradiated with UVB.
(§4) Day 2: Skin explants were washed once with PBS and irradiated with UVB lamp at 200 mJ/cm2. After radiation it was incubated for 30 min and then topically apply each treatment (sample solution) again. Control was not irradiated under UVB light. UVB radiated control was without any treatment except radiation.
(§5) Day 3: Viability and Caspase3 activity were measured for the epidermis layer. The medium was collected for cytokines test.
FIG. 5 illustrates the IL-1α secretion results in the medium as observed with 3 to 4 repetition of the tests. In FIG. 5 the IL-1α secretion of the irradiated sample “UVB” was selected as 100% and it equals 8.1±1.0 pg/ml.

[1] = test system: MatTek EFT-400 full thickness tissues; experiment: DNA microarray gene expression in skin equivalents, complex vs individual ingredients (Example 5); set-up: key to Genes up and downregulation in pathway: + = up-regulated; − = down-regulated; *non-significant down-regulation, thus, regulation is considered as non-affected (NA); settings: for Up-Regulated Genes (number): cut off of two fold change of adjusted Fold Change, 48 hours
Protocol: MatTek EFT-400 full thickness tissues were used as the model for this study. Upon arrival, the full thickness tissues were placed into 6 wells plates with 2 ml of culture media and incubated overnight at 37±2° C. and 5±1% CO2. After this overnight incubation the culture media was replaced with 5 ml of fresh media and the tissues were treated topically with the test materials prepared in distilled water as follows:
After the application of the test materials the tissues were incubated at 37±2° C. and […] for 48 hours.
At the end of the treatment period, the tissues were rinsed and transferred to a 2 ml centrifuge tube containing 700 μl of lysis buffer and homogenized. After centrifuging at 14,000×g for 10 minutes at 4° C. the supernatant from each tube was transferred to a new 1.5 ml tube and mixed with and equal volume of 64% ethanol. After mixing the solutions was transferred to glass fiber filter cartridges and the cartridges were loaded into a 1.5 ml collection tube centrifuged for 1 minute at 14,000 RPM in a Napco 2002 Microcentrifuge with a DA-6T fixed angle rotor. The flow through was discarded and any remaining mixture was loaded into the filter cartridge and the centrifugation process was repeated until all of the mixture had been processed. The filter was then washed to remove any residual cellular debris from the RNA bound to the glass fibers by subsequently applying 700 μl of wash solution 1 (1 time) and 500 μl of wash solution 2 (2 times) to the filter cartridge and centrifuging at 14,000 RPM for 1 minute to pass each wash through the cartridge. After each wash, the flow through was discarded. After the final wash one final spin was performed without wash solution to remove any residual wash solution in the filter cartridge. The RNA bound to the glass fibers within the cartridge was then eluted by applying 40 μl of TE buffer (10 mM Tris-HCl, 1 mM EDTA, preheated to 70-80° C.) to the cartridge and centrifuging the cartridge in a new collection tube at 14,000 RPM for one minute. The elution process was then repeated a second time using 20 μl of TE buffer.
First Strand cDNA Synthesis: To start the first strand synthesis, 10 μl of total RNA for each sample was added to a 600 μl PCR tube and the total volume of liquid in the tube will be adjusted to 11 μl with DEPC H2O. Next, 1 μl of T7 Oligo(dT) primer was added and the tube was incubated in a water bath at 70±2° C. for 10 minutes to denature the RNA and then placed on ice to allow the primers to anneal to the poly A ends of the mRNA. After cooling 2 μl of 10× first strand buffer, 1 μl of RNAse inhibitor and 4 μl of dNTP mix were added to each tube, and the tube was incubated at 42° C. in a hybridization oven (Labnet Problot). As soon as the tube was heated, 1 μl of Reverse Transcriptase was added and the tubes were returned to 42±2° C. for 2 hours. At the end of the two hours the tubes were briefly centrifuged to collect all of the fluid at the bottom of the tube and then placed on ice.
Two tubes were prepared for the labeling process, one for Cy3 labeling (green) and one for Cy5 labeling (red). To the Cy3 tube 2 μg of aRNA prepared from the untreated/control sample (the actual color assignment for each sample is not important, but for consistency Cy3 is normally used for the untreated sample) and enough DEPC H2O was added to bring the total volume up to 4 μl. To the Cy5 tube 2 μg of aRNA prepared from the sample treated with the test material and enough DEPC H2O was added to bring the total volume up to 4 μl. To both tubes 5 μl of ASAP labeling buffer was added along with 1 μl of the specific dye for the tube (Cy3 or Cy5). The tubes were incubated for 15 minutes at 85±2° C. At the end of the 15 minutes the tubes were placed on ice to cool them and then add 2.5 μl of ASAP stop solution was added to each tube.

TNFα = experiment: Human skin organ culture with UVB stressor, TNFα secretion in the medium; settings: UVB 200 mJ/cm2; irradiated sample = 100% (53±30 pg/ml); complex, DSE 3.0%, β-Caroten 15.6 ppm
Protocol: as §1, §2, §3, §4, §5
FIG. 4 illustrates the TNFα secretion results in the medium as observed with 2 to 4 repetition of the tests. In FIG. 4 the TNFα secretion of the irradiated sample “UVB” was selected as 100% and it equals 53±30 pg/ml.

[2] = KEGG_NUCLEOTIDE_EXCISION_REPAIR
[3] = KEGG_SIGNALING_PATHWAYS_REGULATING_PLURIPOTENCY_OF_STEM_CELLS
[4] = WIKI_ASSEMBLY_OF_COLLAGEN_FIBRILS_AND_OTHER_MULTIMERIC_STRUCTURES

CC1=C(/C=C/C(C)=C/C=C/C(C)=C/C=C/C=C(C)/C=C/C=C(C)/C=C/C2=C(C)CCCC2(C)C)C(C)(C)CCC1 [β-Caroten, β-carotene]
increase in IL-1α secretion compared to the control (IL-1α): 20% | z-score ([1]; KEGG_APOPTOSIS): −0.5665 | z-score ([1]; KEGG_BASE_EXCISION_REPAIR): −1.4296 | Genes up and downregulation in pathway ([1]; KEGG_CELL_CYCLE): − | z-score ([1]; KEGG_CELL_CYCLE): −2.4656 | z-score ([1]; KEGG_CIRCADIAN_RHYTHM_MAMMAL): −1.209 | z-score ([1]; KEGG_FATTY_ACID_BIOSYNTHESIS): −0.6185 | z-score ([1]; KEGG_FATTY_ACID_DEGRADATION): −1.0292 | z-score ([1]; KEGG_GLYCOLYSIS_GLUCONEOGENESIS): −1.0754 | z-score ([1]; KEGG_NF_KAPPA_B_SIGNALING_PATHWAY): 3.1522 | Genes up and downregulation in pathway [1, 2]: − | z-score [1, 2]: −1.5901 | z-score ([1]; KEGG_OXIDATIVE_PHOSPHORYLATION): 3.5721 | Genes up and downregulation in pathway ([1]; KEGG_P53_SIGNALING_PATHWAY): − | z-score ([1]; KEGG_P53_SIGNALING_PATHWAY): −1.6942 | z-score ([1]; KEGG_PROTEASOME): 1.1865 | z-score ([1]; KEGG_RETINOL_METABOLISM): −0.6377 | Genes up and downregulation in pathway [1, 3]: − | z-score [1, 3]: −2.818 | z-score ([1]; KEGG_SPHINGOLIPID_METABOLISM): −0.4773 | z-score ([1]; KEGG_TH1_AND_TH2_CELL_DIFFERENTIATION): 1.3936 | z-score ([1]; KEGG_TIGHT_JUNCTION): −0.07358 | z-score ([1]; KEGG_TNF_SIGNALING_PATHWAY): 5.6735 | z-score ([1]; KEGG_T_CELL_RECEPTOR_SIGNALING_PATHWAY): 1.5111 | z-score ([1]; KEGG_WNT_SIGNALING_PATHWAY): −1.5459 | z-score ([1]; WIKI_ACTIVATION_OF_MATRIX_METALLOPROTEINASES): 0.8244 | Genes up and downregulation in pathway [1, 4]: − | z-score [1, 4]: −5.9295 | z-score ([1]; WIKI_COLLAGEN_BIOSYNTHESIS_AND_MODIFYING_ENZYMES): 4.7943 | regulation of collagen synthesis and extracellular matrix pathways (Z-Score heatmap, in words) ([1]; WIKI_COLLAGEN_BIOSYNTHESIS_AND_MODIFYING_ENZYMES, WIKI_EXTRACELLULAR_MATRIX_ORGANIZATION, WIKI_DEGRADATION_OF_THE_EXTRACELLULAR_MATRIX, WIKI_COLLAGEN_DEGRADATION, WIKI_ASSEMBLY_OF_COLLAGEN_FIBRILS_AND_OTHER_MULTIMERIC_STRUCTURES): very much down regulated | z-score ([1]; WIKI_COLLAGEN_DEGRADATION): −5.0219 | z-score ([1]; WIKI_DEGRADATION_OF_THE_EXTRACELLULAR_MATRIX): 4.6457 | Genes up and downregulation in pathway ([1]; WIKI_ELASTIC_FIBRE_FORMATION): − | z-score ([1]; WIKI_ELASTIC_FIBRE_FORMATION): −2.0745 | z-score ([1]; WIKI_ELECTRON_TRANSPORT_CHAIN_IN_MITOCHONDRIA): 2.7536 | z-score ([1]; WIKI_EXTRACELLULAR_MATRIX_ORGANIZATION): 4.5653 | Genes up and downregulation in pathway ([1]; WIKI_KERATINIZATION): + | z-score ([1]; WIKI_KERATINIZATION): 6.3972 | z-score ([1]; WIKI_NRF2_PATHWAY): 1.7004 | z-score ([1]; WIKI_RESPIRATORY_ELECTRON_TRANSPORT_ATP_SYNTHESIS): 2.2177 | z-score ([1]; WIKI_SPHINGOLIPID_METABOLISM): −0.9459 | Up-Regulated Genes (number) ([1]; 19254 genes evaluated): 196 | Up-Regulated Genes (number) ([1]; second column of Table 6): 503 | TNFα concentration as % of the irradiated skin explant (TNFα): 70%
